Measured values reported in US9624197B2, “2-pyridylamino-4-nitrile-piperidinyl orexin receptor antagonists” (MERCK SHARP & DOHME CORP., priority 2012, dated 2017).

Tests used:
human orexin-2 receptor = human orexin-2 receptor (Homo sapiens (Human), UniProt O43614); assay: FLIPR Ca2+ Flux Assay, CHO cells expressing human orexin-2 receptor; format: cell-based; conditions: agonist 70 pM Ala-6,12 human orexin-A, read-out: hOX2R FLIPR IC50
Procedure: (§1) The utility of the compounds in accordance with the present invention as orexin receptor OX1R and/or OX2R antagonists may be readily determined without undue experimentation by methodology well known in the art, including the “FLIPR Ca^2+ Flux Assay” (Okumura et al., Biochem. Biophys. Res. Comm. 280:976-981, 2001). In a typical experiment the OX1 and OX2 receptor antagonistic activity of the compounds of the present invention was determined in accordance with the following experimental method. For intracellular calcium measurements, Chinese hamster ovary (CHO) cells expressing the rat orexin-1 receptor or the human orexin-2 receptor, are grown in Iscove's modified DMEM containing 2 mM L-glutamine, […], 1% hypoxanthine-thymidine supplement, 100 U/ml penicillin, 100 μg/ml streptomycin and 10% heat-inactivated fetal calf serum (FCS). The cells are seeded at 20,000 cells/well into Becton-Dickinson black 384-well clear bottom sterile plates coated with poly-D-lysine. All reagents were from GIBCO-Invitrogen Corp. The seeded plates are incubated overnight at […]. and 5% CO2. Ala-6,12 human orexin-A as the agonist is prepared as a 1 mM stock solution in 1% bovine serum albumin (BSA) and diluted in assay buffer (HBSS containing 20 mM HEPES, 0.1% BSA and 2.5 mM probenecid, pH7.4) for use in the assay at a final concentration of 70 pM. Test compounds are prepared as 10 mM stock solution in DMSO, then diluted in 384-well plates, first in DMSO, then assay buffer. On the day of the assay, cells are washed 3 times with 100 μl assay buffer and then incubated for 60 min (37° C., 5% CO2) in 60 μl assay buffer containing 1 μM Fluo-4AM ester, 0.02% pluronic acid, and 1% BSA. The dye loading solution is then aspirated and cells are washed 3 times with 100 μl assay buffer. 30 μl of that same buffer is left in each well. Within the Fluorescent Imaging Plate Reader (FLIPR, Molecular Devices), test compounds are added to the plate in a volume of 25 μl, incubated for 5 min and finally 25 μl of agonist is added. Fluorescence is measured for each well at 1 second intervals for 5 minutes and the height of each fluorescence peak is compared to the height of the fluorescence peak induced by 70 pM Ala-6,12 orexin-A with buffer in place of antagonist. For each antagonist, IC50 value (the concentration of compound needed to inhibit 50% of the agonist response) is determined. Alternatively, compound potency can be assessed by a radioligand binding assay (described in Bergman et. al. Bioorg. Med. Chem. Lett. 2008, 18, 1425-1430) in which the inhibition constant (Ki) is determined in membranes prepared from CHO cells expressing either the OX1 or OX2 receptor. The intrinsic orexin receptor antagonist activity of a compound which may be used in the present invention may be determined by these assays.

rat orexin-1 receptor = rat orexin-1 receptor (Rattus norvegicus, UniProt P56718); assay: FLIPR Ca2+ Flux Assay, CHO cells expressing rat orexin-1 receptor; format: cell-based; conditions: agonist 70 pM Ala-6,12 human orexin-A, text says rat orexin-1 receptor, read-out: hOX1R FLIPR IC50
Procedure: as §1

human orexin-2 receptor, sequence (O43614 whole entry): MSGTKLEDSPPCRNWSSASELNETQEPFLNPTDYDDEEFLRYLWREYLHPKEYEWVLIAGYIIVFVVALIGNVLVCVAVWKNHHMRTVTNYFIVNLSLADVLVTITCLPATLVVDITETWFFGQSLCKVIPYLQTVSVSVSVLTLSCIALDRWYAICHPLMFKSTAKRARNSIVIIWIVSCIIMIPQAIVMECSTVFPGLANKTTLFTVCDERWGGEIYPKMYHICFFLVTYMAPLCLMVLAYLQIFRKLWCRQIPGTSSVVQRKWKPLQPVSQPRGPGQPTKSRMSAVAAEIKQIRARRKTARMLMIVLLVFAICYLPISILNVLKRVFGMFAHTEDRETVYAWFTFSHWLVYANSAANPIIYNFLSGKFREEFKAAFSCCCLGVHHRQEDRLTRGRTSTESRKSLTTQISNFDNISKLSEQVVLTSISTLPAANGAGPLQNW

Compound	IC50 (human orexin-2 receptor)	IC50 (rat orexin-1 receptor)
C[C@@H]1CC[C@@H](Nc2cc(C#N)ccn2)CN1C(=O)c1ccccc1-n1nccn1 [Example 1, 2-(((3R,6R)-1-(2-(2H-1,2,3-Triazol-2-yl)benzoyl)-6-methylpiperidin-3-yl)amino)isonicotinonitrile]	29 nM	1740 nM
COc1c(C#N)ccnc1N[C@@H]1CC[C@@H](C)N(C(=O)c2ccccc2-n2nccn2)C1 [Example 2, 3-methoxy-2-{[(3R,6R)-6-methyl-1-{[2-(2H-1,2,3-triazol-2-yl)phenyl]carbonyl}piperidin-3-yl]amino}pyridine-4-carbonitrile]	11 nM	267 nM
C[C@@H]1CC[C@@H](Nc2cc(C#N)ccn2)CN1C(=O)c1ccccc1-n1ncnn1 [Example 3, 2-(((3R,6R)-1-(2-(2H-Tetrazol-2-yl)benzoyl)-6-methylpiperidin-3-yl)amino)isonicotinonitrile]	9 nM	1920 nM
Cc1c(C#N)ccnc1N[C@@H]1CC[C@@H](C)N(C(=O)c2ccccc2-n2nccn2)C1 [Example 4, 2-(((3R,6R)-1-(2-(2H-1,2,3-Triazol-2-yl)benzoyl)-6-methylpiperidin-3-yl)amino)-3-methylisonicotinonitrile]	7 nM	745 nM
Cc1c(C#N)ccnc1N[C@@H]1CC[C@@H](C)N(C(=O)c2ccccc2-n2ncnn2)C1 [Example 5, 3-methyl-2-{[(3R,6R)-6-methyl-1-{[2-(2H-tetrazol-2-yl)phenyl]-carbonyl}-piperidin-3-yl]amino}pyridine-4-carbonitrile]	7 nM	1150 nM
COc1c(C#N)ccnc1N[C@@H]1CC[C@@H](C)N(C(=O)c2ccsc2-n2nccn2)C1 [Example 6, 2-((3R,6R)-1-(2-(2H-1,2,3-Triazol-2-yl)thiophene-3-carbonyl)-6-methylpiperidin-3-ylamino)-3-methoxyisonicotinonitrile]	11 nM	827 nM
COc1c(C#N)ccnc1N[C@@H]1CC[C@@H](C)N(C(=O)c2ccsc2-c2ncccn2)C1 [Example 7, 3-methoxy-2-((3R,6R)-6-methyl-1-(2-(pyrimidin-2-yl)thiophene-3-carbonyl)piperidin-3-ylamino)isonicotinonitrile]	47 nM	384 nM
C[C@@H]1CC[C@@H](N(C)c2cc(C#N)ccn2)CN1C(=O)c1ccccc1-n1nccn1 [Example 8, 2-(((3R,6R)-1-(2-(2H-1,2,3-Triazol-2-yl)benzoyl)-6-methylpiperidin-3-yl)(methyl)amino)isonicotinonitrile]	20 nM	2050 nM
C[C@@H]1CC[C@@H](N(C)c2cc(C#N)ccn2)CN1C(=O)c1ccccc1-n1ncnn1 [Example 9, 2-{methyl[(3R,6R)-6-methyl-1-{[2-(2H-tetrazol-2-yl)phenyl]-carbonyl}piperidin-3-yl]amino}pyridine-4-carbonitrile]	32 nM	2240 nM
COc1c(C#N)ccnc1N(C)[C@@H]1CC[C@@H](C)N(C(=O)c2ccsc2-n2nccn2)C1 [Example 10, 3-methoxy-2-{methyl[(3R,6R)-6-methyl-1-{[2-(2H-1,2,3-triazol-2-yl)thiophen-3-yl]carbonyl}piperidin-3-yl]amino}pyridine-4-carbonitrile]	39 nM	> 10000 nM
COc1c(C#N)ccnc1N(C)[C@@H]1CC[C@@H](C)N(C(=O)c2ccsc2-c2ncccn2)C1 [Example 11, 3-methoxy-2-(methyl{(3R,6R)-6-methyl-1-[(2-pyrimidin-2-ylthiophen-3-yl)carbonyl]piperidin-3-yl}amino)pyridine-4-carbonitrile]	34 nM	> 10000 nM
CCN(c1cc(C#N)ccn1)[C@@H]1CC[C@@H](C)N(C(=O)c2ccccc2-n2nccn2)C1 [Example 12, 2-{ethyl[(3R,6R)-6-methyl-1-{[2-(2H-1,2,3-triazol-2-yl)phenyl]carbonyl}piperidin-3-yl]amino}-pyridine-4-carbonitrile]	23 nM	1990 nM
C=CCN(c1cc(C#N)ccn1)[C@@H]1CC[C@@H](C)N(C(=O)c2ccccc2-n2nccn2)C1 [Example 13, 2-{[(3R,6R)-6-methyl-1-{[2-(2H-1,2,3-triazol-2-yl)phenyl]carbonyl}piperidin-3-yl](prop-2-en-1-yl)amino}pyridine-4-carbonitrile]	23 nM	2550 nM
CCCN(c1cc(C#N)ccn1)[C@@H]1CC[C@@H](C)N(C(=O)c2ccccc2-n2nccn2)C1 [Example 14, 2-{[(3R,6R)-6-methyl-1-{[2-(2H-1,2,3-triazol-2-yl)phenyl]carbonyl}piperidin-3-yl](propyl)-amino}pyridine-4-carbonitrile]	13 nM	330 nM
CC(=O)N(c1cc(C#N)ccn1)[C@@H]1CC[C@@H](C)N(C(=O)c2ccccc2-n2nccn2)C1 [Example 15, N-((3R,6R)-1-(2-(2H-1,2,3-Triazol-2-yl)benzoyl)-6-methylpiperidin-3-yl)-N-(4-cyanopyridin-2-yl)acetamide]	–	> 10000 nM
